# pIC50: −log10 of the molar value.
# Target: T1, mouse TRPM3α2 (mTRPM3) ion channel (Mus musculus, UniProt J9SQF3)
# T1 construct: expressed in transfected cells; host or cells: flip-in HEK293
# Assay: TRPM3 ion channel driven Ca2+ uptake, Fluo-4 AM assay, PS-stimulated (mTRPM3)
# Format: cell-based
# Settings: TRPM3 overexpressing flip-in HEK293 cells stimulated with Pregnenolone sulfate (PS) 50 μM, activity ranges A, B, C
# Experimental: Monitoring the TRPM3 Ion Channel Driven Ca^2+ Uptake.
# In order to monitor the inhibition of the mouse TRPM3α2 (mTRPM3) ion channel by the compounds of the invention, a cellular system making use of an mTRPM3alpha2 or hTRPM3 overexpressing cell line (flip-in HEK293) was used. The TRPM3 channel was stimulated/opened with Pregnenolone sulfate (PS) (50 μM) which results in Ca^2+ influx.
# For mTRPM3, the intracellular Ca^2+ was measured with a Calcium responsive dye, Fluor-4 AM ester (Invitrogen). Cells were cultured until a confluence of 80-90%, washed with Versene (Invitrogen) and detached from the surface by a short incubation with 0.05% Trypsin (Invitrogen). The trypsination process was stopped by the addition of complete cell culture medium (DMEM, glutamax, 10% FCS, NEAA, Pen-Strep). Cells were collected and resuspended in Krebs buffer without Calcium at RT.
# Prior the cell seeding (±2000 cells/well into a black, 384 well plate (Greiner)) the diluted compound was added in the assay plate, together with the PS dissolved in Krebs buffer containing Calcium. […] Directly after cell addition the plates were read on an Envision fluorescence reader (Perkin Elmer) by an Excitation of 485 nm and emission at 535 nm.
# Channel inhibition was calculated compared to a non-PS stimulated control versus a condition stimulated with PS (50 μM) with vehicle. The ability of the compounds of the invention to inhibit this activity was determined as: Percentage inhibition=[1−((RFU determined for sample with test compound present−RFU determined for sample with positive control inhibitor) divided by (RFU determined in the presence of vehicle−RFU determined for sample with positive control inhibitor))]*100.
# The activities of the Example compounds tested are depicted in the table below.
# T1 sequence (J9SQF3 1-1709 isoform J9SQF3-12): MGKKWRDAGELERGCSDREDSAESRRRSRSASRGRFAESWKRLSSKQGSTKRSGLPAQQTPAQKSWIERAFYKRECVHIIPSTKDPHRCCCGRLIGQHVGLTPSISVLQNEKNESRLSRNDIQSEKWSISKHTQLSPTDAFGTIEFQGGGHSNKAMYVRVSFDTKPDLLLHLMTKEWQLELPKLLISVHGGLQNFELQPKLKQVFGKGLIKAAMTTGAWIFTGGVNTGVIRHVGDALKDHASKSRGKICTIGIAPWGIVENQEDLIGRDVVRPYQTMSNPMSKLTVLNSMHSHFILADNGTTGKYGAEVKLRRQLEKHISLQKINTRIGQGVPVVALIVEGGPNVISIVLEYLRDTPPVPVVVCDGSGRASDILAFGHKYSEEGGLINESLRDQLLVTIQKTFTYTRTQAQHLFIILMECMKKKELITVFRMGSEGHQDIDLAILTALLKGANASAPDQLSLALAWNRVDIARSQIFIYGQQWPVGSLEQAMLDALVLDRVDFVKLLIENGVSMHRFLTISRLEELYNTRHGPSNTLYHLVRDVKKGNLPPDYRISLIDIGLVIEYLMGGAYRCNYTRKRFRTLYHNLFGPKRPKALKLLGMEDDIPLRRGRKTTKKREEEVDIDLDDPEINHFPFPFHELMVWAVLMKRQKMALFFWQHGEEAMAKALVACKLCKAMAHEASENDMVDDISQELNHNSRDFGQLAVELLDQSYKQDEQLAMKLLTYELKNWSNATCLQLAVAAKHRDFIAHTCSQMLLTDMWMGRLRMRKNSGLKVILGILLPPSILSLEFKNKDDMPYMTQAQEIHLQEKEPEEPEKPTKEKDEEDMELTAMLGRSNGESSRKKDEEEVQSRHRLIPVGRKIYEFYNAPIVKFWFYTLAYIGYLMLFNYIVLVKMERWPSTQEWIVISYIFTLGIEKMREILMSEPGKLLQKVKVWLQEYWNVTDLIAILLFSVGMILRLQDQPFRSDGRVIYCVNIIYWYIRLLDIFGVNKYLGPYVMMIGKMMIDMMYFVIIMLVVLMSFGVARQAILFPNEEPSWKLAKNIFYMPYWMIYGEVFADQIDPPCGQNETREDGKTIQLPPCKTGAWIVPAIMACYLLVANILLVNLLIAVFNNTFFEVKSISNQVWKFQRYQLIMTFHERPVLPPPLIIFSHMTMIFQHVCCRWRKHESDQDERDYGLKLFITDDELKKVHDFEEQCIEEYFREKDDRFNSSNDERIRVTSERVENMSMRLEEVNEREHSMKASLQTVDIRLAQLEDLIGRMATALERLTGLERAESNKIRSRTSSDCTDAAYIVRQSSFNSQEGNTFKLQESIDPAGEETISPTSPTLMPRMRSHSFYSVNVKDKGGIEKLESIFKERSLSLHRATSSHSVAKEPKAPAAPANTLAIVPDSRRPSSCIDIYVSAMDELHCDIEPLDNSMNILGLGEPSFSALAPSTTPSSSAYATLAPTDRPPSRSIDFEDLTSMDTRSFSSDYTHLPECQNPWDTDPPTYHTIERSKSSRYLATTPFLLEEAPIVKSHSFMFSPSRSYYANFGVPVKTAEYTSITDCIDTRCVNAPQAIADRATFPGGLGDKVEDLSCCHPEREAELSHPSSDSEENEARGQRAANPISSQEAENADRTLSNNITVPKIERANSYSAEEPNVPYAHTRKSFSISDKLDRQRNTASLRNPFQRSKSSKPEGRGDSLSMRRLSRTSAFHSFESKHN
row,pIC50,SMILES
1,4.70 to 6.00,"Cc1oc2ccc(OCc3ccccc3)c(C#N)c2c1C(=O)NC1CNCC1(F)F (single isomer, unassigned) [Cpd 297-En 2, 5-(benzyloxy)-4-cyano-N-(4,4-difluoropyrrolidin-3-yl)-2-methylbenzofuran-3-carboxamide]"
2,> 6.00,"Cc1oc2ccc(OCc3ccccc3)c(C)c2c1C(=O)NC1CNCC1(F)F (single isomer, unassigned) [Cpd 299-En 1, 5-(benzyloxy)-N-(4,4-difluoropyrrolidin-3-yl)-2,4-dimethylbenzofuran-3-carboxamide]"
3,4.70 to 6.00,"Cc1cc2oc(C)c(C(=O)NC3CNCC3(F)F)c2cc1OCc1ccccc1 (single isomer, unassigned) [Cpd 303-En 1, 5-(benzyloxy)-N-(4,4-difluoropyrrolidin-3-yl)-2,6-dimethylbenzofuran-3-carboxamide]"
4,4.70 to 6.00,"Cc1oc2c(Cl)cc(OCc3ccccc3)cc2c1C(=O)NC1CNCC1(F)F (single isomer, unassigned) [Cpd 304-En 1, 5-(benzyloxy)-7-chloro-N-(4,4-difluoropyrrolidin-3-yl)-2-methylbenzofuran-3-carboxamide]"
5,< 4.70,"Cc1oc2c(Cl)cc(OCc3ccccc3)cc2c1C(=O)NC1CNCC1(F)F (single isomer, unassigned) [Cpd 304-En 2, 5-(benzyloxy)-7-chloro-N-(4,4-difluoropyrrolidin-3-yl)-2-methylbenzofuran-3-carboxamide]"
6,< 4.70,"Cc1oc2c(C#N)cc(OCc3ccccc3)cc2c1C(=O)NC1CNCC1(F)F (single isomer, unassigned) [Cpd 305-En 1, 5-(benzyloxy)-7-cyano-N-(4,4-difluoropyrrolidin-3-yl)-2-methylbenzofuran-3-carboxamide]"
7,> 6.00,"Cc1oc2c(F)cc(OCc3ccccc3)cc2c1C(=O)NC1CNCC1(F)F (single isomer, unassigned) [Cpd 306-En 1]"
8,4.70 to 6.00,"Cc1oc2c(F)cc(OCc3ccccc3)cc2c1C(=O)NC1CNCC1(F)F (single isomer, unassigned) [Cpd 306-En 2]"
9,> 6.00,"Cc1oc2ccc(OC(C)c3ccccc3)cc2c1C(=O)NC1(CO)CCOCC1 (single isomer, unassigned) [Cpd 308-En 2, N-(4-(hydroxymethyl)tetrahydro-2H-pyran-4-yl)-2-methyl-5-(1-phenylethoxy)benzofuran-3-carboxamide]"
10,> 6.00,"Cc1oc2ccc(OCc3ccccc3F)cc2c1C(=O)NC(CO)C(N)=O (single isomer, unassigned) [Cpd 314-En 1]"
11,4.70 to 6.00,"Cc1oc2ccc(OC(CO)c3ccccc3)cc2c1C(=O)NC1(CO)CCOCC1 (single isomer, unassigned) [Cpd 317-En 2, 5-(2-hydroxy-1-phenylethoxy)-N-(4-(hydroxymethyl)tetrahydro-2H-pyran-4-yl)-2-methylbenzofuran-3-carboxamide]"
12,> 6.00,"Cc1oc2ccc(COc3ccccc3F)cc2c1C(=O)NC(C)C(N)=O (single isomer, unassigned) [Cpd 320-En 1]"
13,> 6.00,"Cc1oc2ccc(COc3ccccc3F)cc2c1C(=O)NC(C)C(N)=O (single isomer, unassigned) [Cpd 320-En 2]"
14,4.70 to 6.00,"Cc1oc2ccc(COc3ccccc3F)cc2c1C(=O)NC(CO)C(N)=O (single isomer, unassigned) [Cpd 321-En 1, N-(1-amino-3-hydroxy-1-oxopropan-2-yl)-5-((2-fluorophenoxy)methyl)-2-methylbenzofuran-3-carboxamide]"
15,> 6.00,"Cc1oc2ccc(COc3ccccc3F)cc2c1C(=O)NC(CO)C(N)=O (single isomer, unassigned) [Cpd 321-En 2, N-(1-amino-3-hydroxy-1-oxopropan-2-yl)-5-((2-fluorophenoxy)methyl)-2-methylbenzofuran-3-carboxamide]"

# Continued, compound first:
row,SMILES,pIC50
1,"Cc1oc2ccc(OCc3ccccc3)c(F)c2c1C(=O)NC1CNCC1(F)F (single isomer, unassigned) [Cpd 298-En 1, 5-(benzyloxy)-N-(4,4-difluoropyrrolidin-3-yl)-4-fluoro-2-methylbenzofuran-3-carboxamide]",> 6.00
2,"Cc1oc2ccc(OCc3ccccc3)c(F)c2c1C(=O)NC1CNCC1(F)F (single isomer, unassigned) [Cpd 298-En 2, 5-(benzyloxy)-N-(4,4-difluoropyrrolidin-3-yl)-4-fluoro-2-methylbenzofuran-3-carboxamide]",4.70 to 6.00
3,"Cc1oc2ccc(OCc3ccccc3)c(C)c2c1C(=O)NC1CNCC1(F)F (single isomer, unassigned) [Cpd 299-En 2, 5-(benzyloxy)-N-(4,4-difluoropyrrolidin-3-yl)-2,4-dimethylbenzofuran-3-carboxamide]",> 6.00
4,"Cc1oc2cc(Cl)c(OCc3ccccc3)cc2c1C(=O)NC1CNCC1(F)F (single isomer, unassigned) [Cpd 300-En 1, 5-(benzyloxy)-6-chloro-N-(4,4-difluoropyrrolidin-3-yl)-2-methylbenzofuran-3-carboxamide]",4.70 to 6.00
5,"Cc1oc2cc(Cl)c(OCc3ccccc3)cc2c1C(=O)NC1CNCC1(F)F (single isomer, unassigned) [Cpd 300-En 2, 5-(benzyloxy)-6-chloro-N-(4,4-difluoropyrrolidin-3-yl)-2-methylbenzofuran-3-carboxamide]",< 4.70
6,"Cc1oc2cc(C#N)c(OCc3ccccc3)cc2c1C(=O)NC1CNCC1(F)F (single isomer, unassigned) [Cpd 301-En 1, 5-(benzyloxy)-6-cyano-N-(4,4-difluoropyrrolidin-3-yl)-2-methylbenzofuran-3-carboxamide]",< 4.70
7,"Cc1oc2cc(C#N)c(OCc3ccccc3)cc2c1C(=O)NC1CNCC1(F)F (single isomer, unassigned) [Cpd 301-En 2, 5-(benzyloxy)-6-cyano-N-(4,4-difluoropyrrolidin-3-yl)-2-methylbenzofuran-3-carboxamide]",< 4.70
8,"Cc1oc2cc(F)c(OCc3ccccc3)cc2c1C(=O)NC1CNCC1(F)F (single isomer, unassigned) [Cpd 302-En 1, 5-(benzyloxy)-N-(4,4-difluoropyrrolidin-3-yl)-6-fluoro-2-methylbenzofuran-3-carboxamide]",> 6.00
9,"Cc1oc2cc(F)c(OCc3ccccc3)cc2c1C(=O)NC1CNCC1(F)F (single isomer, unassigned) [Cpd 302-En 2, 5-(benzyloxy)-N-(4,4-difluoropyrrolidin-3-yl)-6-fluoro-2-methylbenzofuran-3-carboxamide]",> 6.00
10,"Cc1cc2oc(C)c(C(=O)NC3CNCC3(F)F)c2cc1OCc1ccccc1 (single isomer, unassigned) [Cpd 303-En 2, 5-(benzyloxy)-N-(4,4-difluoropyrrolidin-3-yl)-2,6-dimethylbenzofuran-3-carboxamide]",< 4.70
11,"Cc1oc2c(C#N)cc(OCc3ccccc3)cc2c1C(=O)NC1CNCC1(F)F (single isomer, unassigned) [Cpd 305-En 2, 5-(benzyloxy)-7-cyano-N-(4,4-difluoropyrrolidin-3-yl)-2-methylbenzofuran-3-carboxamide]",< 4.70
12,"Cc1oc2c(C)cc(OCc3ccccc3)cc2c1C(=O)NC1CNCC1(F)F (single isomer, unassigned) [Cpd 307-En 1, 5-(benzyloxy)-N-(4,4-difluoropyrrolidin-3-yl)-2,7-dimethylbenzofuran-3-carboxamide]",4.70 to 6.00
13,"Cc1oc2c(C)cc(OCc3ccccc3)cc2c1C(=O)NC1CNCC1(F)F (single isomer, unassigned) [Cpd 307-En 2, 5-(benzyloxy)-N-(4,4-difluoropyrrolidin-3-yl)-2,7-dimethylbenzofuran-3-carboxamide]",< 4.70
14,"Cc1oc2ccc(OC(C)c3ccccc3)cc2c1C(=O)NC1(CO)CCOCC1 (single isomer, unassigned) [Cpd 308-En 1, N-(4-(hydroxymethyl)tetrahydro-2H-pyran-4-yl)-2-methyl-5-(1-phenylethoxy)benzofuran-3-carboxamide]",> 6.00
15,"Cc1oc2ccc(OCc3ccccc3F)cc2c1C(=O)NC1CCN(CCO)C1=O (single isomer, unassigned) [Cpd 311-En 1, 5-((2-Fluorobenzyl)oxy)-N-(1-(2-hydroxyethyl)-2-oxopyrrolidin-3-yl)-2-methylbenzofuran-3-carboxamide]",> 6.00
16,"Cc1oc2ccc(OCc3ccccc3F)cc2c1C(=O)NC1CCN(CCO)C1=O (single isomer, unassigned) [Cpd 311-En 2, 5-((2-Fluorobenzyl)oxy)-N-(1-(2-hydroxyethyl)-2-oxopyrrolidin-3-yl)-2-methylbenzofuran-3-carboxamide]",> 6.00
17,"Cc1oc2ccc(OCc3ccccc3F)cc2c1C(=O)NC(CO)C(N)=O (single isomer, unassigned) [Cpd 314-En 2]",> 6.00
18,"Cc1oc2ccc(OC(CO)c3ccccc3)cc2c1C(=O)NC1(CO)CCOCC1 (single isomer, unassigned) [Cpd 317-En 1, 5-(2-hydroxy-1-phenylethoxy)-N-(4-(hydroxymethyl)tetrahydro-2H-pyran-4-yl)-2-methylbenzofuran-3-carboxamide]",> 6.00

# Source: US20230391739A1, “ARYL DERIVATIVES FOR TREATING TRPM3 MEDIATED DISORDERS” (Katholieke Universiteit Leuven, priority 2020, published 2023)
